Measured values as given in ChEMBL document CHEMBL1127815, “Homodimeric and heterodimeric bis(amino thiol) oxometal complexes with rhenium(V) and technetium(V). Control of heterodimeric complex formation and an approach to metal complexes that mimic steroid hormones” (J Med Chem, 1994).

Key:
Rattus norvegicus [1] = experiment: Biodistribution in Sprague-Darwley rat heart at 15 min after intravenous administration of 70g; assay type: ADME, organism-based; settings: in vivo, 0.25 h
Rattus norvegicus [2] = experiment: Biodistribution in Sprague-Darwley rat fat at 30 min after intravenous administration of 70g; assay type: ADME, organism-based, Adipose tissue; settings: in vivo, 0.5 h
Rattus norvegicus [3] = experiment: Biodistribution in Sprague-Darwley rat heart at 120 min after intravenous administration of 70g; assay type: ADME, organism-based; settings: in vivo, 2 h
Rattus norvegicus [4] = experiment: Biodistribution in Sprague-Darwley rat kidney at 60 min after intravenous administration of 70g; assay type: ADME, organism-based; settings: in vivo, 1 h
Rattus norvegicus [5] = experiment: Biodistribution in Sprague-Darwley rat blood at 2 min after intravenous administration of 70g; assay type: ADME, organism-based; settings: in vivo
Rattus norvegicus [6] = experiment: Biodistribution in Sprague-Darwley rat muscle at 120 min after intravenous administration of 70g; assay type: ADME, organism-based, Muscle tissue; settings: in vivo, 2 h
Rattus norvegicus [7] = experiment: Biodistribution in Sprague-Darwley rat liver at 120 min after intravenous administration of 70g; assay type: ADME, organism-based; settings: in vivo, 2 h
Rattus norvegicus [8] = experiment: Biodistribution in Sprague-Darwley rat liver at 15 min after intravenous administration of 70g; assay type: ADME, organism-based; settings: in vivo, 0.25 h
Rattus norvegicus [9] = experiment: Biodistribution in Sprague-Darwley rat fat at 120 min after intravenous administration of 70g; assay type: ADME, organism-based, Adipose tissue; settings: in vivo, 2 h
Rattus norvegicus [10] = experiment: Biodistribution in Sprague-Darwley rat kidney at 120 min after intravenous administration of 70g; assay type: ADME, organism-based; settings: in vivo, 2 h
Rattus norvegicus [11] = experiment: Biodistribution in Sprague-Darwley rat blood at 120 min after intravenous administration of 70g; assay type: ADME, organism-based; settings: in vivo, 2 h
Rattus norvegicus [12] = experiment: Biodistribution in Sprague-Darwley rat kidney at 2 min after intravenous administration of 70g; assay type: ADME, organism-based; settings: in vivo
Rattus norvegicus [13] = experiment: Biodistribution in Sprague-Darwley rat heart at 2 min after intravenous administration of 70g; assay type: ADME, organism-based; settings: in vivo
Rattus norvegicus [14] = experiment: Biodistribution in Sprague-Darwley rat muscle at 15 min after intravenous administration of 70g; assay type: ADME, organism-based, Muscle tissue; settings: in vivo, 0.25 h
Rattus norvegicus [15] = experiment: Biodistribution in Sprague-Darwley rat liver at 60 min after intravenous administration of 70g; assay type: ADME, organism-based; settings: in vivo, 1 h
Rattus norvegicus [16] = experiment: Biodistribution in Sprague-Darwley rat heart at 60 min after intravenous administration of 70g; assay type: ADME, organism-based; settings: in vivo, 1 h
Rattus norvegicus [17] = experiment: Biodistribution in Sprague-Darwley rat kidney at 15 min after intravenous administration of 70g; assay type: ADME, organism-based; settings: in vivo, 0.25 h
Rattus norvegicus [18] = experiment: Biodistribution in Sprague-Darwley rat blood at 60 min after intravenous administration of 70g; assay type: ADME, organism-based; settings: in vivo, 1 h
Rattus norvegicus [19] = experiment: Biodistribution in Sprague-Darwley rat blood at 15 min after intravenous administration of 70g; assay type: ADME, organism-based; settings: in vivo, 0.25 h
Rattus norvegicus [20] = experiment: Biodistribution in Sprague-Darwley rat lung at 60 min after intravenous administration of 70g; assay type: ADME, organism-based; settings: in vivo, 1 h
Rattus norvegicus [21] = experiment: Biodistribution in Sprague-Darwley rat liver at 30 min after intravenous administration of 70g; assay type: ADME, organism-based; settings: in vivo, 0.5 h
Rattus norvegicus [22] = experiment: Biodistribution in Sprague-Darwley rat fat at 2 min after intravenous administration of 70g; assay type: ADME, organism-based, Adipose tissue; settings: in vivo
Rattus norvegicus [23] = experiment: Biodistribution in Sprague-Darwley rat muscle at 60 min after intravenous administration of 70g; assay type: ADME, organism-based, Muscle tissue; settings: in vivo, 1 h
Rattus norvegicus [24] = experiment: Biodistribution in Sprague-Darwley rat lung at 2 min after intravenous administration of 70g; assay type: ADME, organism-based; settings: in vivo
Rattus norvegicus [25] = experiment: Biodistribution in Sprague-Darwley rat rest of brain at 15 min after intravenous administration of 70g; assay type: ADME, organism-based; settings: in vivo, 0.25 h
Rattus norvegicus [26] = experiment: Biodistribution in Sprague-Darwley rat muscle at 2 min after intravenous administration of 70g; assay type: ADME, organism-based, Muscle tissue; settings: in vivo
Rattus norvegicus [27] = experiment: Biodistribution in Sprague-Darwley rat lung at 120 min after intravenous administration of 70g; assay type: ADME, organism-based; settings: in vivo, 2 h
Rattus norvegicus [28] = experiment: Biodistribution in Sprague-Darwley rat kidney at 30 min after intravenous administration of 70g; assay type: ADME, organism-based; settings: in vivo, 0.5 h
Rattus norvegicus [29] = experiment: Biodistribution in Sprague-Darwley rat rest of brain at 60 min after intravenous administration of 70g; assay type: ADME, organism-based; settings: in vivo, 1 h
Rattus norvegicus [30] = experiment: Biodistribution in Sprague-Darwley rat muscle at 30 min after intravenous administration of 70g; assay type: ADME, organism-based, Muscle tissue; settings: in vivo, 0.5 h
Rattus norvegicus [31] = experiment: Biodistribution in Sprague-Darwley rat rest of brain at 120 min after intravenous administration of 70g; assay type: ADME, organism-based; settings: in vivo, 2 h
Rattus norvegicus [32] = experiment: Biodistribution in Sprague-Darwley rat lung at 15 min after intravenous administration of 70g; assay type: ADME, organism-based; settings: in vivo, 0.25 h
Rattus norvegicus [33] = experiment: Biodistribution in Sprague-Darwley rat lung at 30 min after intravenous administration of 70g; assay type: ADME, organism-based; settings: in vivo, 0.5 h
Rattus norvegicus [34] = experiment: Biodistribution in Sprague-Darwley rat fat at 60 min after intravenous administration of 70g; assay type: ADME, organism-based, Adipose tissue; settings: in vivo, 1 h
Rattus norvegicus [35] = experiment: Biodistribution in Sprague-Darwley rat rest of brain at 30 min after intravenous administration of 70g; assay type: ADME, organism-based; settings: in vivo, 0.5 h
Rattus norvegicus [36] = experiment: Biodistribution in Sprague-Darwley rat fat at 15 min after intravenous administration of 70g; assay type: ADME, organism-based, Adipose tissue; settings: in vivo, 0.25 h
Rattus norvegicus [37] = experiment: Biodistribution in Sprague-Darwley rat liver at 2 min after intravenous administration of 70g; assay type: ADME, organism-based; settings: in vivo
Rattus norvegicus [38] = experiment: Biodistribution in Sprague-Darwley rat blood at 30 min after intravenous administration of 70g; assay type: ADME, organism-based; settings: in vivo, 0.5 h
Rattus norvegicus [39] = experiment: Biodistribution in Sprague-Darwley rat rest of brain at 2 min after intravenous administration of 70g; assay type: ADME, organism-based; settings: in vivo
Rattus norvegicus [40] = experiment: Biodistribution in Sprague-Darwley rat heart at 30 min after intravenous administration of 70g; assay type: ADME, organism-based; settings: in vivo, 0.5 h

**Q.** Which ID/g (Rattus norvegicus [1]) does the source give for “[N-(2-Mercapto-2-methylpropyl)-N-(4-methoxyphenyl)-aminato][2-(mercaptomethyl)pyridinato]oxotechnetium V” here?
**A.** 0.721%

**Q.** And the ID/g (Rattus norvegicus [2])?
**A.** 0.297%

**Q.** What about the ID/g (Rattus norvegicus [3]) of the same substance?
**A.** 0.151%

**Q.** And the ID/g (Rattus norvegicus [4])?
**A.** 1.281%

**Q.** And the ID/g (Rattus norvegicus [5])?
**A.** 0.681%

**Q.** And the ID/g (Rattus norvegicus [6])?
**A.** 0.107%

**Q.** And the ID/g (Rattus norvegicus [7])?
**A.** 2.892%

**Q.** What about the ID/g (Rattus norvegicus [8]) of the same substance?
**A.** 3.69%

**Q.** What about the ID/g (Rattus norvegicus [9]) of the same substance?
**A.** 1.128%

**Q.** And the ID/g (Rattus norvegicus [10])?
**A.** 1.779%

**Q.** What about the ID/g (Rattus norvegicus [11]) of the same substance?
**A.** 0.192%

**Q.** And the ID/g (Rattus norvegicus [12])?
**A.** 3.117%

**Q.** And the ID/g (Rattus norvegicus [13])?
**A.** 3.285%

**Q.** What about the ID/g (Rattus norvegicus [14]) of the same substance?
**A.** 0.379%

**Q.** What about the ID/g (Rattus norvegicus [15]) of the same substance?
**A.** 3.309%

**Q.** And the ID/g (Rattus norvegicus [16])?
**A.** 0.305%

**Q.** What about the ID/g (Rattus norvegicus [17]) of the same substance?
**A.** 1.291%

**Q.** And the ID/g (Rattus norvegicus [18])?
**A.** 0.202%

**Q.** What about the ID/g (Rattus norvegicus [19]) of the same substance?
**A.** 0.316%

**Q.** And the ID/g (Rattus norvegicus [20])?
**A.** 0.344%

**Q.** What about the ID/g (Rattus norvegicus [21]) of the same substance?
**A.** 2.987%

**Q.** And the ID/g (Rattus norvegicus [22])?
**A.** 0.241%

**Q.** And the ID/g (Rattus norvegicus [23])?
**A.** 0.167%

**Q.** What about the ID/g (Rattus norvegicus [24]) of the same substance?
**A.** 4.24%

**Q.** And the ID/g (Rattus norvegicus [25])?
**A.** 0.63%

**Q.** And the ID/g (Rattus norvegicus [26])?
**A.** 0.364%

**Q.** And the ID/g (Rattus norvegicus [27])?
**A.** 0.224%

**Q.** What about the ID/g (Rattus norvegicus [28]) of the same substance?
**A.** 1.075%

**Q.** What about the ID/g (Rattus norvegicus [29]) of the same substance?
**A.** 0.185%

**Q.** What about the ID/g (Rattus norvegicus [30]) of the same substance?
**A.** 0.255%

**Q.** And the ID/g (Rattus norvegicus [31])?
**A.** 0.128%

**Q.** What about the ID/g (Rattus norvegicus [32]) of the same substance?
**A.** 0.83%

**Q.** And the ID/g (Rattus norvegicus [33])?
**A.** 0.434%

**Q.** What about the ID/g (Rattus norvegicus [34]) of the same substance?
**A.** 1.071%

**Q.** And the ID/g (Rattus norvegicus [35])?
**A.** 0.283%

**Q.** What about the ID/g (Rattus norvegicus [36]) of the same substance?
**A.** 0.511%

**Q.** What about the ID/g (Rattus norvegicus [37]) of the same substance?
**A.** 4.121%

**Q.** And the ID/g (Rattus norvegicus [38])?
**A.** 0.213%

**Q.** And the ID/g (Rattus norvegicus [39])?
**A.** 1.346%

**Q.** What about the ID/g (Rattus norvegicus [40]) of the same substance?
**A.** 0.386%
